Measured values: PubChem BioAssay (NCI)
Values joined by “and” are separate entries in the source; they are usually repeats but may differ in a detail not shown here. Equal values may be shown once.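 A five-concentration, 48-hour dose response in 96-well plates underlies each endpoint, interpolated linearly between surrounding concentrations. GI50 is the concentration that inhibits growth by half. Definition used: TGI = concentration required for complete inhibition of growth.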

What was measured:
Test in all cases: NCI-60 cell line screen, 48 h
BT-549 breast = tested on: BT-549 breast
PC-3 prostate = tested on: PC-3 prostate
HOP-92 NSCLC = tested on: HOP-92 NSCLC
MOLT-4 leukemia = tested on: MOLT-4 leukemia
UACC-257 melanoma = tested on: UACC-257 melanoma
HCT-116 colon = tested on: HCT-116 colon
LOX IMVI melanoma = tested on: LOX IMVI melanoma
NCI-H460 lung = tested on: NCI-H460 lung
COLO 205 colon = tested on: COLO 205 colon
M14 melanoma = tested on: M14 melanoma

Row | Structure (SMILES) | GI50 (BT-549 breast) [µM] | TGI (BT-549 breast) [µM] | GI50 (PC-3 prostate) [µM] | TGI (PC-3 prostate) [µM] | GI50 (HOP-92 NSCLC) [µM] | TGI (HOP-92 NSCLC) | GI50 (MOLT-4 leukemia) [µM] | GI50 (UACC-257 melanoma) [µM] | TGI (UACC-257 melanoma) | GI50 (HCT-116 colon) [µM] | TGI (HCT-116 colon) | GI50 (LOX IMVI melanoma) [µM] | TGI (LOX IMVI melanoma) [µM] | GI50 (NCI-H460 lung) [µM] | TGI (NCI-H460 lung) | GI50 (COLO 205 colon) [µM] | TGI (COLO 205 colon) | GI50 (M14 melanoma) [µM] | TGI (M14 melanoma) | TGI (MOLT-4 leukemia)
1 | CCOc1cccc(/C=N/NC(=O)c2ccc(Nc3ccnc(C(F)(F)F)c3)cc2)c1O | 1.88 | > 85 | 0.607 | > 33.8 | 1.01 | > 64.2 µM | 0.244 | 0.728 | > 21.1 µM | 0.367 | > 71.5 µM | 0.6 | 24.5 | 0.492 | 13.6 µM | 1.14 | > 38.3 µM | 1.19 | > 24.6 µM | 
2 | c1ccc(Cn2cc3c(c2-c2ccccc2)CCc2cnoc2-3)cc1 | 6.63 | 56.1 | 6.13 | > 100 | 18 | > 100 µM | 2.19 | 17.7 | > 100 µM | 3.27 | > 100 µM | 4.23 | > 100 | 3.41 | 22.1 µM | 2.9 | 11.1 µM | 4.89 | > 100 µM | 6.98 µM
3 | O=C1CC(c2ccc(N3CCOCC3)cc2)(c2ccsc2)NC(=O)C1Sc1ccccc1Cl (stereo not given) | 16.7 | > 100 | 53.1 | > 100 | 11.8 | > 100 µM | 46.9 | > 100 | > 100 µM | 25.4 | > 100 µM | 31.5 | > 100 | 13.5 | > 100 µM | > 100 | > 100 µM | 60.7 | > 100 µM | > 100 µM
4 | CC(C)=CCC[C@H](C)[C@@H]1CC[C@]2(C)C3CC[C@]4(OC4(C)C)C(CCCO)[C@]3(C)CC[C@@]12C (stereo not given in full) | 26 | 51.7 | 18.2 | 41.1 | 14.5 | 34.7 µM | 18.2 | 24.1 | 59.9 µM | 29 | > 100 µM | 0.18 | 16.5 | 23.7 | 70.3 µM | 31.5 | > 100 µM | 32.1 | > 100 µM | 44.6 µM
5 | CC1=C(C(=O)Nc2ccc(F)c(Cl)c2)C(c2ccccc2Cl)NC(=S)N1 (stereo not given) | > 50 | > 50 | 20.2 | > 50 | > 50 | > 50 µM | > 50 | 19.7 | 49.7 µM | 22.4 | > 50 µM | 15.1 | > 50 | 23.7 | > 50 µM | 23.9 | > 50 µM | 34.9 | > 50 µM | > 50 µM
6 | CN(C)c1ccc(N2Cc3ccccc3OC3=C2C(=O)c2c(O)ccc(O)c2C3=O)cn1 | 0.195 | 0.507 | 0.221 | 0.867 | 0.2 | 0.467 µM | 0.112 | 0.311 | 1.14 µM | 0.124 | 0.288 µM | 0.16 | 0.48 | 1.28 | 3.67 µM | 0.174 | 0.38 µM | 0.241 | 0.713 µM | 0.843 µM
7 | COC(=O)NC1C(C)OC(OC2C/C=C(/C)C3C=CC4C(OC5CC(OC6CC(O)C(OC7CC(O)C(OC)C(C)O7)C(C)O6)C(O)C(C)O5)C(C)CC(C)C4C3(C)/C(O)=C3\C(=O)OC4(CC(C)C(CO)=CC4/C=C\2C)C3=O)CC1(C)[N+](=O)[O-] (stereo not given) |  | 41.4 |  | 50 | 9.95 | 19.7 µM and 32.7 µM | 18.2 | 8.28 | 16.4 µM and 29.4 µM | 8.04 | 14.8 µM and 23.4 µM |  | 28 | 8.33 | 18.4 µM and 30.5 µM | 9.29 | 16.3 µM and 13 µM | 16.9 | 17.2 µM and 32.7 µM | 50 µM and 20.2 µM
8 | CC[C@H](C)[C@H]1NC(=O)[C@@H](N[C@](C)(O)[C@@H](N)CC(C)C)[C@@H](C)OC(=O)[C@H](Cc2ccc(OC)cc2)N(C)C(=O)[C@@H]2CCCN2C(=O)[C@H](CC(C)C)NC(=O)[C@@H](C)C(=O)[C@H](C(C)C)OC(=O)C[C@@H]1O | 0.0195 | 0.406 | 0.0164 | 0.208 | 0.0262 | 0.391 µM | 0.0133 | 0.0408 | 0.337 µM | 0.00608 | 50 µM | 0.012 | 0.209 | 0.011 | 0.572 µM | 0.0108 | 0.073 µM | 0.0215 | 0.289 µM | 0.575 µM
9 | Cn1cncc1[C@@](N)(c1ccc(Cl)cc1)c1ccc2c(c1)c(-c1cccc(Cl)c1)cc(=O)n2C | 3.16 | 14.4 | 1.47 | 7.99 | 0.174 | 2.69 µM | 2.33 | 1.37 | 12.4 µM | 1.48 | 7.57 µM | 1.34 | 5.36 | 1.97 | 11.9 µM | 2.31 | 9.09 µM | 0.0818 | 11.1 µM | 7.97 µM
10 | C=C1C(=O)O[C@@H]2C[C@@]3(C)CCC[C@H](C)C3=C[C@H]12 |  | 15.7 |  | 24.2 |  | 11.2 µM |  |  | 20.1 µM |  | 16.2 µM |  | 22.9 |  | 31.7 µM |  | 3.39 µM |  | 12.6 µM | 4.8 µM
11 | Oc1ccc2cc(Br)ccc2c1-c1c(O)ccc2cc(Br)ccc12 | 3.86 | 12.4 | 3.24 | 13 | 3.01 | 7.93 µM | 2.83 | 10.1 | 22.6 µM | 1.95 | 4.01 µM | 1.81 | 3.41 | 3.76 | 15 µM | 1.77 | 3.38 µM | 3.91 | 14 µM | 11 µM
12 | COc1ccc(-c2[nH]c3ccccc3c2C=C(C#N)C#N)cc1 | 0.769 | > 100 | 0.547 | > 100 | 1.21 | > 100 µM | 0.578 | > 20.6 | > 100 µM | 0.41 | > 21.1 µM | 1.73 | > 100 | 0.368 | > 100 µM | 0.223 | 0.533 µM | 0.289 |  | 5.53 µM
